From patent US6303591A, “21-hydroxy-6,19-oxidoprogesterone (21OH-6OP) and its use as medicament for treating excess of glucocorticoids” (Applied Research Systems ARS Holding NV, priority 1997, dated 2001)
Entries after “also recorded” stand apart in the source; their conditions may differ.

Columns and labels:
[1] = test system: Na^+ retention (sodium-excretion rate); assay: Na^+ -retaining activity, adrenalectomized rats; format: in vivo, rat
Method: (§1) FIG. 3: Biological Properties of 21OH-6OP: A) Glycogen storage in vivo: 100 μg steroid/100 g body weight of male rats were injected as indicated in Example 1. Liver glycogen was purified and quantified with Krisman's reagent (17). Controls were injected with vehicle. Results are expressed as means±SEM (n=6). (*): different from controls P<0.02. B) TAT induction in vitro: rat hepatocytes were incubated for 5 h in HAM-F12 medium in the presence of 100 nM steroid and TAT activity was measured. Results are expressed as percentage of enzyme activity (means±SEM, n=4) over controls incubated in the presence of vehicle. (*) different from controls P<0.01. C) Sodium-retaining activity: adrenalectomized rats were treated with the indicated dose of steroids. Results are expressed as the ratio of sodium-excretion rates of steroid-injected animals to the excretion rates of rats injected with vehicle.
(§2) Bioassay : Liver glycogen deposition was measured on adrenalectoniized male Sprague-Dawley rats (180-220 g) as follows: steroids were dissolved in ethanol/propylene glycol/0.9% NaCl solution (3:3:34) and 100 μg steroid/l00 g body weight were injected i.m. the previous night. On the morning of the experiment this dose was reinjected intraperitoneally. Three hours later the rats were killed by cervical dislocation and livers were immediately removed. Glycogen purification and quantification were carried out according to Krisman's method (17). Na^+ -retaining properties were measured as described (5). Tyrosine aminotransferase (TAT) was induced in rat hepatocytes isolated by the procedure of Fry et al (18). TAT activity was determined according to Granner and Tomkins (19).

[2] = test system: liver glycogen; assay: liver glycogen deposition in vivo, adrenalectomized rats; design: species or system rat; conditions: 100 μg steroid/100 g body weight; for liver glycogen deposits: compared to ADX controls
Method: as §1, §2

[3] = test system: Na^+ retention (sodium-excretion rate); conditions: earlier study, ref (5); cited from earlier work
[4] = test system: tyrosine aminotransferase (TAT) induction in rat hepatocytes; assay: TAT induction in rat hepatocytes (agonism); format: cell-based; conditions: for increase of TAT activity: 100 nM steroid, rat hepatocytes
Method: as §1
(§3) Hatched bars represent incubations performed in the presence of vehicle instead of agonist.
as §2
(§4) The basal TAT activity in hepatocytes, denominated control in the figure, was measured by adding vehicle (final concentration: 0.2% ethanol) to the culture. […] 2.5 μM 21OH-6OP inhibits 80% of TAT induction when concubated with B or DXM.

[5] = test system: TAT induction in hepatocytes (GR); assay: antagonism of TAT induction by DXM or B in hepatocytes; format: cell-based, rat; conditions: 2.5 μM steroid
Method: as §3, §2, §4

[6] = molecular target: T1, type II sites (GR) (Rattus norvegicus, UniProt P06536); assay: tracer binding (Scatchard) to kidney type II sites (GR); conditions: no competitor
T1 construct: type II receptors in kidney cytosols; from tissue; host or cells: kidney cytosol, adrenalectomized male Sprague-Dawley rats
T1 sequence (P06536 1-795): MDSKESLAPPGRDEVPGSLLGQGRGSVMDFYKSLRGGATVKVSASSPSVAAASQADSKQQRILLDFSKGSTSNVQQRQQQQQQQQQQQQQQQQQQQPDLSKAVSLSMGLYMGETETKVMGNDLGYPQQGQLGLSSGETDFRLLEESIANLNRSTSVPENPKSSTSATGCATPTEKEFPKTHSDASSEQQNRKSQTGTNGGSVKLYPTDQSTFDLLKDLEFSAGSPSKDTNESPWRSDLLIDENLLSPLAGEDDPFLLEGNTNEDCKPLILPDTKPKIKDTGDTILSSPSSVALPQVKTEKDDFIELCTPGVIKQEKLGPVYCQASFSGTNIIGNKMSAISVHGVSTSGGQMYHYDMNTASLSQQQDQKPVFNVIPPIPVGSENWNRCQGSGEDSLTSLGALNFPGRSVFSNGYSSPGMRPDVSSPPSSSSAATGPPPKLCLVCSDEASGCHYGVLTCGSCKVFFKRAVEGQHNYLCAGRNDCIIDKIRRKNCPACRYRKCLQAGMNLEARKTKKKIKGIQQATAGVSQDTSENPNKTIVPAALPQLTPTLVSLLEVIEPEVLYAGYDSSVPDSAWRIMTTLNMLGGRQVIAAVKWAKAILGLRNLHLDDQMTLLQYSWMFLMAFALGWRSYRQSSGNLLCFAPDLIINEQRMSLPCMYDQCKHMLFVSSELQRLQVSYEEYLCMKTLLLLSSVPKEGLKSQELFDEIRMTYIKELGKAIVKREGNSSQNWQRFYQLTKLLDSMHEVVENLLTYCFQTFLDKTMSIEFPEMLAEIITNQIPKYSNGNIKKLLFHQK
Method: (§5) Binding Assay: Adrenalectomized male Sprague-Dawley rats were bled to death by heart puncture. Cold 0.9% NaCI was injected profusely through the aorta until organs were completely blanched. Thymuses were used as a source of GR and kidneys as a source of MR. Homogenization and incubation conditions were performed as previously described, (14) and (15), respectively. Briefly, homogenates performed in cold TEGM buffer at pH 7.4 (0.1 M Tris-HCl, 10 mM EDTA, 10 mM α-mercaptoethanol, 20 mM Na2 MoO4, 25% glycerol, 0.1 mM PMSF, 2.0 TIU/ml aprotinin and 1 mg% Leupeptin) were centrifuged at 37,000 rev. for 30 min at 0° C. Supernatants from this centrifugation are referred to as "cytosol". […] (^3 H)-P4 binding to uterus PR was assayed on immature female rats according to Jordan et al (16).
(§6) To study the binding of ALDO to kidney- MR without the competitive influence of the relatively more abundant GR, GR was removed with the specific ligand RU28362 (7).
The calculated Kd for type I sites in different conditions ranges between 0.4 and 1 nM (Table 1) which is at least eighty times higher than the affinity for type II sites.

[7] = molecular target: T2, type I receptors (kidney MR) (Rattus norvegicus, UniProt P22199); assay: tracer binding (Scatchard) to kidney type I sites (MR); conditions: for nH, type I: Hill coefficient; for Q, type I: apparent number of sites
T2 construct: kidneys as a source of MR; from tissue; host or cells: kidney cytosol, adrenalectomized male Sprague-Dawley rats
T2 sequence (P22199 1-981): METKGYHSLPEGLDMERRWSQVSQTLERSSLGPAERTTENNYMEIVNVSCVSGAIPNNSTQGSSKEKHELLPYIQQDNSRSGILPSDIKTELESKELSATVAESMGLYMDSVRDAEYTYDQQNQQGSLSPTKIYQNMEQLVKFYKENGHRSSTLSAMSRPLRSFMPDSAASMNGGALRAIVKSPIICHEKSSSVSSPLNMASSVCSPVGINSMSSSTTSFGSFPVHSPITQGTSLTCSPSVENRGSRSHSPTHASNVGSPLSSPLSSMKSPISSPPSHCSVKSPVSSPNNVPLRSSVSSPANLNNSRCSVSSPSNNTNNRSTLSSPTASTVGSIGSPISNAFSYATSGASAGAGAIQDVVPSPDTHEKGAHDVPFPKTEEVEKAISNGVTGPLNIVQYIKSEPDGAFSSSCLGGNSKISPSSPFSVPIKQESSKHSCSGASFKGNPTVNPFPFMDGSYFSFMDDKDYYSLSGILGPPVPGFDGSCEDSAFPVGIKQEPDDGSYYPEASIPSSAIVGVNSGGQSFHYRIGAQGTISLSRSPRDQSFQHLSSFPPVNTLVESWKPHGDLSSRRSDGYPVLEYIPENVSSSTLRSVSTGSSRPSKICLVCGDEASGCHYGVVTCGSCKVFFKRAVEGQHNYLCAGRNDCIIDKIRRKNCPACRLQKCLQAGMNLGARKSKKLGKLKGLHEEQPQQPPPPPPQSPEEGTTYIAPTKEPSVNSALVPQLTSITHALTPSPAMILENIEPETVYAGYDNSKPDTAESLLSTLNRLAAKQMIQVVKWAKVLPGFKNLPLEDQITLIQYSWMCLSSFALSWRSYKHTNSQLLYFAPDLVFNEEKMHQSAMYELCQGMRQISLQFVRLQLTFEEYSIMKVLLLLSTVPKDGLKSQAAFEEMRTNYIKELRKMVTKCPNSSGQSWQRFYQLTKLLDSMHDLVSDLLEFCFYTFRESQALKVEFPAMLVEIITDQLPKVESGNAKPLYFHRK
Method: as §5, with “(16). […]” for “(16).”
as §6

[8] = test system: hippocampus type I MR; conditions: ref (9); cited from earlier work
[9] = test system: inoperable cases of nonpituitary Cushing's syndrome; conditions: cited from earlier work
[10] = test system: PR; conditions: background; cited from earlier work
[11] = in the presence of 2.5 μM 21OH-6OP
[12] = in the presence of 10 μM RU-28362

CC(=O)[C@H]1CC[C@H]2[C@@H]3C[C@H]4OC[C@@]5(CCC(=O)C=C45)[C@H]3CC[C@]12C [6OP, 6,19-oxidoprogesterone]
Na^+ -retaining (MC) properties (in words) ([1]; FIG. 3-C): weak Na^+ -retainer; also recorded: then loosing activity at still higher doses | maximum Na^+ retention ([1]; maximum of parabolic dose-response, at high doses): 50% | GC response: liver glycogen ([2]; FIG. 3-A): neither 6OP nor 21OH-6OP evoke these responses | Na^+ retaining properties [3]: exhibited practically no Na^+ retaining properties | TAT induction (in words) ([4]; FIGS. 3-B and 4 (hatched bars), no agonist added): neither 6OP nor 21OH-6OP evoke these responses; also recorded: Neither 6OP nor 21OH-6OP facilitate TAT induction | GC properties ([4]; preliminary studies, test not specified): lack of GC properties | antagonism of TAT induction by B (in words) ([5]; 100 nM B): significantly different (P<0.01) from the basal activity | antagonism of TAT induction by DXM (in words) ([5]; 100 nM DXM): significantly different (P<0.01) from the basal activity

C[C@]12C[C@H](O)[C@H]3[C@@H](CCC4=CC(=O)CC[C@@]43C)[C@@H]1CC[C@@H]2C(=O)CO [B, corticosterone]
liver glycogen deposits [2]: between three and four times more | increase of TAT activity [4]: between five and six times

C[C@]12CCC(=O)C=C1CC[C@@H]1[C@@H]2[C@@H](O)C[C@]2(C=O)[C@@H](C(=O)CO)CC[C@@H]12 [(^3 H)-ALDO, Aldosterone]
nH, type II ([6]; Hill coefficient): 0.86 | Q, type II ([6]; apparent number of sites): 2900 fmol/mg | Kd [6]: 64.4 nM | nH, type I [7, 11]: 0.88 | nH, type I [7, 12]: 0.90 | nH, type I ([7]; no competitor): 0.97 | Q, type I [7, 11]: 110 fmol/mg | Q, type I [7, 12]: 124.4 fmol/mg | Q, type I ([7]; no competitor): 104 fmol/mg

C[C@@H]1C[C@H]2[C@@H]3CCC4=CC(=O)C=C[C@]4(C)[C@@]3(F)[C@@H](O)C[C@]2(C)[C@@]1(O)C(=O)CO [DXM, dexamethasone]
liver glycogen deposits [2]: between three and four times more | increase of TAT activity [4]: between five and six times

COC(=O)[C@@H]1CC2=CC(=O)CC[C@]2(C)[C@H]2CC[C@@]3(C)[C@@H]([C@@H]4C[C@@H]4[C@@]34CCC(=O)O4)[C@H]12 [(^3 H)-ZK91587]
binding to hippocampus type I MR [8]: hippocampus type I MR (9) | nH, type I ([7]; no competitor): 0.91 | Q, type I ([7]; no competitor): 98 fmol/mg | Kd ([7]; no competitor): 0.42 nM

CC#C[C@]1(O)CC[C@H]2[C@@H]3C=C(C)C4=CC(=O)C=C[C@]4(C)[C@H]3[C@@H](O)C[C@@]21C [RU28862]
reduction of (^3 H)-ALDO Scatchard plot to type I sites ([7]; 1.0 μM RU28862, selective MR ligand ZK91587): reduces the plot to a single line corresponding to type I sites

CC#C[C@]1(O)CC[C@H]2[C@@H]3CCC4=CC(=O)CCC4=C3[C@@H](c3ccc(N(C)C)cc3)C[C@@]21C [RU38486]
dose needed for effectiveness [9]: 20-800 mg per day | antiprogestin activity [10]: strong antiprogestin activity
